The record followed here is ChEMBL document CHEMBL4825753 (J Med Chem, 2021).

The target in data set [1] is T1, Tyrosine-protein kinase Mer (Homo sapiens, UniProt Q12866).
T1 sequence (Q12866 whole entry): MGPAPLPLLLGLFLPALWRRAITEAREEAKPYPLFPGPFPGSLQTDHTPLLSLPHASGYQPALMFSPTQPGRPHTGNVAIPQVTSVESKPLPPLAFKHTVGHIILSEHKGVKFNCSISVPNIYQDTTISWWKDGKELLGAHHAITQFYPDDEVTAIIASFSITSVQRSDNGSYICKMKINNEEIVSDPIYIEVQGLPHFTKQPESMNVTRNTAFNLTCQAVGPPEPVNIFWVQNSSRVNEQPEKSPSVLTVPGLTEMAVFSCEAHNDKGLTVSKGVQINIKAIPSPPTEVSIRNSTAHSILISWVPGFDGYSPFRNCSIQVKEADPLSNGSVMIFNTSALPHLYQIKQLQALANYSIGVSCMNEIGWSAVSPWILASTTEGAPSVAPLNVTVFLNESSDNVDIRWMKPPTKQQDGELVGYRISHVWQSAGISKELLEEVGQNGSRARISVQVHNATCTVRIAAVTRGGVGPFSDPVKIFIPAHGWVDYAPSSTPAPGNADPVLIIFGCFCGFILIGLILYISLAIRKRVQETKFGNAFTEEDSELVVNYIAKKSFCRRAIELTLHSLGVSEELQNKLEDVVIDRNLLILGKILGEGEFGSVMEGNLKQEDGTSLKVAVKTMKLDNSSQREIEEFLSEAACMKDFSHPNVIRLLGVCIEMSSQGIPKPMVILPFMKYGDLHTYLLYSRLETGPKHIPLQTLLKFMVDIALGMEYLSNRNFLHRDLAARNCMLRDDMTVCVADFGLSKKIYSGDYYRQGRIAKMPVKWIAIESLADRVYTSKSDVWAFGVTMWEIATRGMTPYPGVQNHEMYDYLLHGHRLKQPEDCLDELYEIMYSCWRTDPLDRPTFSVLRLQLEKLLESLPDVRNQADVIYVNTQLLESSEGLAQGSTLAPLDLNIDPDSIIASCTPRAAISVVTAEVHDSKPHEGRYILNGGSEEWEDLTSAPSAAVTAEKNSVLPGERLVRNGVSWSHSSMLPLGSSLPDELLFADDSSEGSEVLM
Description: Inhibition of MER (unknown origin) by LC-MS analysis.

Data set [2] has as its target T2, Tyrosine-protein kinase receptor UFO (Homo sapiens, UniProt P30530).
T2 sequence (P30530 whole entry): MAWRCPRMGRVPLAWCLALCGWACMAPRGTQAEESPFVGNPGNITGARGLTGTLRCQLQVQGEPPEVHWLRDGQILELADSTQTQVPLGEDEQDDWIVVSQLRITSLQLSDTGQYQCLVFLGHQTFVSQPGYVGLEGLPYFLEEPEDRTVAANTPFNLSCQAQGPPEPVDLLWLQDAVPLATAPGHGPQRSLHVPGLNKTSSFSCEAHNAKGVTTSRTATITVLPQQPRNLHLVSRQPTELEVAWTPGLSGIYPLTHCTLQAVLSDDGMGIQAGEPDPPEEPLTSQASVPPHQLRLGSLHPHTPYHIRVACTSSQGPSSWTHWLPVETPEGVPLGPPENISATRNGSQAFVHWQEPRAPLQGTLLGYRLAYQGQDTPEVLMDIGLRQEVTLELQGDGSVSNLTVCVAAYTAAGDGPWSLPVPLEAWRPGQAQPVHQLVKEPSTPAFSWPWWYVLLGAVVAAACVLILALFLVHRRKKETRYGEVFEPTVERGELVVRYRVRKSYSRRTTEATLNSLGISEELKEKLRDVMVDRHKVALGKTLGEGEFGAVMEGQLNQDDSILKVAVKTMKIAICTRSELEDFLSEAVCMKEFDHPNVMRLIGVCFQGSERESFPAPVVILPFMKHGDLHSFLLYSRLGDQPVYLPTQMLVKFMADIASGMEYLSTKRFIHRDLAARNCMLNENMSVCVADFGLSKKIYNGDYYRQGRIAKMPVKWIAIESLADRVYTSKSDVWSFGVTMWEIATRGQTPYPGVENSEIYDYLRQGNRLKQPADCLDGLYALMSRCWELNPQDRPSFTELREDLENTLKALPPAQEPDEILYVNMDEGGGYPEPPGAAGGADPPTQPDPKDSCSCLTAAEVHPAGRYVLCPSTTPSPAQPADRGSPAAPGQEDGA
The data set can be described thus: Inhibition of AXL (unknown origin) by LC-MS analysis.

Data set [3] deals with T3, Receptor-type tyrosine-protein kinase FLT3 (Homo sapiens, UniProt P36888).
T3 sequence (P36888 whole entry): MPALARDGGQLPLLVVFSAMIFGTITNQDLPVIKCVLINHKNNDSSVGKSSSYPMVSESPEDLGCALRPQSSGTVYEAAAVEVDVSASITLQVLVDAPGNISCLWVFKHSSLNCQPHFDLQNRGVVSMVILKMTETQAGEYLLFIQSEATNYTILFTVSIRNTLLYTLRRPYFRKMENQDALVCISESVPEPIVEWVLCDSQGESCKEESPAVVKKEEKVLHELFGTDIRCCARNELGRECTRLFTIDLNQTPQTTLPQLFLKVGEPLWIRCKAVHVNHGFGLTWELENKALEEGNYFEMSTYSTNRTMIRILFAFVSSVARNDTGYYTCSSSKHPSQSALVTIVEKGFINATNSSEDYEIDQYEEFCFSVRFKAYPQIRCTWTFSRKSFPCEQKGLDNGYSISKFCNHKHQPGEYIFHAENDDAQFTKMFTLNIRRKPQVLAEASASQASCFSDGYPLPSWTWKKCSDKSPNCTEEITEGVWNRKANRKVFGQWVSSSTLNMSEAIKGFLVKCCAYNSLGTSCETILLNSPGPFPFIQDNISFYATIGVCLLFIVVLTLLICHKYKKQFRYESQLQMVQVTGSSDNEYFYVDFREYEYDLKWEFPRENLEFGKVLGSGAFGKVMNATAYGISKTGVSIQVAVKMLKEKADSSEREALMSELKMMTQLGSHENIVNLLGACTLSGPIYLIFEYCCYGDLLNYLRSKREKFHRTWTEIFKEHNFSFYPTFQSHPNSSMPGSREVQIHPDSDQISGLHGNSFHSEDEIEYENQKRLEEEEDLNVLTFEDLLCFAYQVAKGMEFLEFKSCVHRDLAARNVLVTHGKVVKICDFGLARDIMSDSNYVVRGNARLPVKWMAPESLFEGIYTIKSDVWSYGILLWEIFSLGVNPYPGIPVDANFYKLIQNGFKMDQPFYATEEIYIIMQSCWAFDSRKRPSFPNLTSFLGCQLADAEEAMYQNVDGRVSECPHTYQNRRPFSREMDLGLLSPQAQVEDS
Description: Inhibition of FLT3 (unknown origin) by LC-MS analysis.

The nature of data set [4]: Lipophilicity, log D of the compound at pH 7.4. The format is physicochemical. Particulars: buffer.
Data set [5] has as its target T2, Tyrosine-protein kinase receptor UFO. The data set can be described thus: Inhibition of FLAG-tagged AXL (unknown origin) transfected in Cos-7 cells assessed as phosphorylation level incubated for 1 hr by ELISA. Format: cell-based.
In data set [6] the target is T3, Receptor-type tyrosine-protein kinase FLT3. Description: Inhibition of FLAG-tagged FLT3 (unknown origin) transfected in Cos-7 cells assessed as phosphorylation level incubated for 1 hr by ELISA. The format is cell-based.

Structures are written as SMILES.

On to `CN(Cc1ccc2nccn2c1)c1nnc(-c2ccccc2)o1`, for which the concentration for half-maximal inhibition (IC50) in data set [1] is 15.8 µM; in data set [2] it was greater than 100 µM; in data set [3], greater than 100 µM. The log distribution coefficient (logD) in data set [4] is 2.4.

Take `CN(Cc1ccc2nccn2c1)c1nnc(-c2ccc(-c3ccccc3F)cc2)o1`: the IC50 in data set [1] was 0.0158 µM; in data set [2], 1.58 µM; in data set [3] it was 50.1 µM. In data set [4], this compound returned a logD of 4.4.

As for `CN(Cc1ccc2nccn2c1)c1nnc(-c2ccc(-c3ccccc3)cc2)o1`, the IC50 in data set [1] was 0.0398 µM; in data set [2] it was 3.16 µM; in data set [3], 25.1 µM. This compound had a logD in data set [4] of 3.9.

As to `Cc1nn(C)c(C)c1-c1ccc(-c2nnc(N(C)Cc3ccc4nccn4c3)o2)c(Cl)c1`, the IC50 in data set [1] was 0.00251 µM; in data set [2] it was 0.0794 µM; in data set [3], 20 µM; in data set [5], 0.794 µM; in data set [6], greater than 31.6 µM. In data set [4], this compound registered a logD of 3.3.

With `Cc1cc(-c2c(C)nn(C(F)F)c2C)ccc1-c1nnc(N(C)Cc2ccc3nccn3c2)o1`, the IC50 in data set [1] was 0.501 µM; in data set [2], 63.1 µM; in data set [3] it was 100 µM; in data set [5], greater than 10 µM; in data set [6], greater than 31.6 µM. Moreover, the logD in data set [4] is 4.1.

For `CN(Cc1ccc2nccn2c1)c1nnc(-c2ccc(-c3ccccc3C#N)cc2)o1`, the IC50 in data set [1] was 0.0251 µM; in data set [2], 3.98 µM; in data set [3], 10 µM. This compound also gave a logD in data set [4] of 3.6.

Take `Cc1nn(C)c(C)c1-c1ccc(-c2nnc(N(C)Cc3ccc4nccn4c3)o2)c(C#N)c1`: the IC50 was 100 µM in data set [1]; greater than 100 µM in data set [2]; 79.4 µM in data set [3]; greater than 31.6 µM in data set [5]; greater than 31.6 µM in data set [6]. The same compound registered a logD in data set [4] of 2.9.

On to `COc1ccccc1-c1ccc(-c2nnc(N(C)Cc3ccc4nccn4c3)o2)cc1`, for which the figures for the IC50 in data set [1], in data set [2] and in data set [3] were 0.0316 µM, 1.58 µM and 50.1 µM, respectively. The compound also yielded a logD in data set [4] of 4.1.

With `Cc1cc(-c2cnn(C)c2C)ccc1-c1nnc(N(C)Cc2ccc3nccn3c2)o1`, the IC50 is 0.002 µM in data set [1]; 0.1 µM in data set [2]; 63.1 µM in data set [3]; 0.794 µM in data set [5]; greater than 31.6 µM in data set [6]. For the same compound, in data set [4], the logD turned out to be 3.4.

On to `Cc1ccccc1-c1ccc(-c2nnc(N(C)Cc3ccc4nccn4c3)o2)cc1`, for which the IC50 was 0.0126 µM in data set [1], 0.631 µM in data set [2] and 1 µM in data set [3]. In addition, the logD in data set [4] was 4.7.

For the compound `COc1cc(-c2c(C)nn(C)c2C)ccc1-c1nnc(N(C)Cc2ccc3nccn3c2)o1`, the IC50 in data set [1] is 0.0158 µM; in data set [2], 0.794 µM; in data set [3] it was 39.8 µM; in data set [5] it was 2 µM; in data set [6], greater than 31.6 µM. In addition, the pH-dependent lipophilicity (logD) in data set [4] was determined as 2.9.

On to `Cc1nn(C)c(C)c1-c1ccc(-c2nnc(N(C)Cc3ccc4nccn4c3)o2)cc1`, for which the IC50 is 0.0316 µM in data set [1], 1.26 µM in data set [2], greater than 63.1 µM in data set [3] and 3.16 µM in data set [5]. The compound also gave a logD in data set [4] of 3.1.

Turning to `Cc1ncccc1-c1ccc(-c2nnc(N(C)Cc3ccc4nccn4c3)o2)cc1`, the IC50 in data set [1] is 0.0501 µM; in data set [2] it was 6.31 µM; in data set [3] it was 20 µM. The logD in data set [4] turned out to be 3.1.

For the compound `CN(Cc1ccc2nccn2c1)c1nnc(-c2ccc(C3CC3)cc2)o1`, the IC50 in data set [1] is 0.794 µM; in data set [2] it was 20 µM; in data set [3] it was 25.1 µM. In data set [4], this compound had a logD of 3.5.

`Cc1cc(-c2c(C#N)nn(C)c2C)ccc1-c1nnc(N(C)Cc2ccc3nccn3c2)o1`: the IC50 in data set [1] was 0.0316 µM; in data set [2], 6.31 µM; in data set [3], 25.1 µM; in data set [5], 6.31 µM. This compound also registered a logD in data set [4] of 3.4.

For the compound `Cc1noc(C)c1-c1ccc(-c2nnc(N(C)Cc3ccc4nccn4c3)o2)cc1`, the IC50 in data set [1] was 0.2 µM; in data set [2], 31.6 µM; in data set [3] it was 39.8 µM. Besides, in data set [4], the logD is 3.1.
